# In patent US7569724B2, “Carbamic acid compounds comprising an amide linkage as HDAC inhibitors” (Topotarget UK Limited, priority 2000, dated 2009):
# pIC50: −log10 of the molar value. Like-named read-outs stand apart in the source and are kept apart here.
# What was measured:
# JURKAT human T-cell line = assay: Secondary assay: cell proliferation WST-1, Jurkat; format: cell-based; details: 48 h, read-out: Cell Proliferation Inhibition WST-1 (IC50 unless otherwise specified) Jurkat
# [1] = test system: K11 HPV E7 transformed human keratinocyte line; assay: Secondary assay: cell proliferation WST-1, K11; format: cell-based; details: read-out: Cell Proliferation Inhibition WST-1 (IC50 unless otherwise specified) K11
# HeLa cells = assay: Secondary assay: cell proliferation WST-1, HeLa; format: cell-based; details: Homo sapiens, 48 h, read-out: Cell Proliferation Inhibition WST-1 (IC50 unless otherwise specified) HeLa
# Procedure, shortened: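 Absorbance at 450 nm (reference 690 nm); % activity vs untreated after blank subtraction, IC50 fitted with top 100 and bottom 0.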
# HDAC (HeLa cell extract) = assay: Primary assay: deacetylase activity, HeLa cell extract as source of HDAC; format: biochemical, human
# Procedure, shortened: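 Crude HeLa extract (freeze-thaw in 60 mM TrisCl pH 8.0, 450 mM NaCl, 30% glycerol) was incubated 1 h at 37° C with a [³H]acetyl-labelled histone H4 N-terminal peptide in 20 mM Tris pH 7.4, 10% glycerol.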
# [2] = test system: NHEK-Ad primary human adult keratinocyte line; assay: Secondary assay: cell proliferation WST-1, NHEK-Ad; format: cell-based; details: 48 h, read-out: Cell Proliferation Inhibition WST-1 (IC50 unless otherwise specified) NHEK-AD
# Protocol: Compounds with HDAC inhibition activity, as determined using the primary assay, were subsequently evaluated using secondary cell-based assays. The following cell lines were used:
# NHEK-Ad—Primary human adult keratinocyte line (Cambrex Corp., East Rutherford, N.J., USA).
# Cells were plated in 96-well plates at 3-10×10^3 cells/well in 100 μL of culture medium. The following day, different concentrations of candidate compounds were added and the cells incubated at 37° C. for 48 h. Subsequently, 10 μL/well of WST-1 reagent was added and the cells reincubated for 1 hour. After the incubation time, absorbance was measured.
# WST-1 is a tetrazolium salt which is cleaved to formazan dye by cellular enzymes. An expansion in the number of viable cells results in an increase in the overall activity of mitochondrial dehydrogenases in the sample. This augmentation in the enzyme activity leads to an increase in the amount of formazan dye formed, which directly correlates to the number of metabolically active cells in the culture. The formazan dye produced is quantified by a scanning multiwell spectrophotometer by measuring the absorbance of the dye solution at 450 nm wavelength (reference wavelength 690 nm).
# Percent activity (% activity) in reducing the number of viable cells was calculated for each test compound as: % activity={(S^C−B)/(S^o−B)}×100 wherein S^C denotes signal measured in the presence of the compound being tested, S^o denotes signal measured in the absence of the compound being tested, and B denotes the background signal measured in blank wells containing medium only.
# IC50 values were calculated using the software package Prism 3.0 (GraphPad software Inc., San Diego, Calif.), setting top value at 100 and bottom value at 0.
# human HDAC2 = biological target: T1, human HDAC2 (Homo sapiens, UniProt Q92769); assay: Primary assay: deacetylase activity, recombinantly produced HDAC2; format: biochemical; details: recombinant HDAC2; read-out: HDAC Inhibition (IC50 unless otherwise specified) HDAC2
# T1 construct: Full length human HDAC2 was subcloned; Flag (C); His6 (from pAcHLT-A vector; purified on Ni-NTA) (N); made in house; host or cells: SF9 insect cells (baculovirus)
# T1 sequence (Q92769 whole entry): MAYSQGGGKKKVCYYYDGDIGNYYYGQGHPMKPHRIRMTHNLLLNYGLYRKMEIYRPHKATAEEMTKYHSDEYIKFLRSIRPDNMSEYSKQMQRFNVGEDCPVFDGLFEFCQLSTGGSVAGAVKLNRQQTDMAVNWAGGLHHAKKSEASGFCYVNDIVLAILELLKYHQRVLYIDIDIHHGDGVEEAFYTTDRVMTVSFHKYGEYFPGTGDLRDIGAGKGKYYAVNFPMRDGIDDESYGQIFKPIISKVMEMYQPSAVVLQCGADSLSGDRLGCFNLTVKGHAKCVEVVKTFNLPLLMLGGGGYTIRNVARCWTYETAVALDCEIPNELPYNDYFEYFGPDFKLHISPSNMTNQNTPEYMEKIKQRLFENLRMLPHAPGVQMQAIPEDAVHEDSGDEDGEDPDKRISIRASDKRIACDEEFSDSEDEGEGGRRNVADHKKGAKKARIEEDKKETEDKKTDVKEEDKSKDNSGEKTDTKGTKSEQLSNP
# Text: (§1) Briefly, this assay relies on the release of radioactive acetate from a radioactively labelled histone fragment by the action of HDAC enzyme. Test compounds, which inhibit HDAC, reduce the yield of radioactive acetate. Signal (e.g., scintillation counts) measured in the presence and absence of a test compound provide an indication of that compound's ability to inhibit HDAC activity. Decreased activity indicates increased inhibition by the test compound.
# (§2) The histone fragment was an N-terminal sequence from histone H4, and it was labelled with radioactively labelled acetyl groups using tritiated acetylcoenzyme A (coA) in conjunction with an enzyme which is the histone acetyltransferase domain of the transcriptional coactivator p300. […] The acetylated peptide was then separated from free acetyl coA by size exclusion chromatography on Sephadex G-15 (Sigma G-15-120), using distilled H2O as the mobile phase.
# (§3) After purification of the radiolabelled histone fragment, it was incubated with a source of HDAC (e.g., an extract of HeLa cells (a rich source of HDAC), recombinantly produced HDAC1 or HDAC2) and any released acetate was extracted into an organic phase and quantitatively determined using scintillation counting. By including a test compound with the source of HDAC, that compound's ability to inhibit the HDAC was determined.
# (§4) Amplification of recombinant viruses was performed according to the Pharmingen Instruction Manual.
# (§5) For protein production, 2×10^7 cells were infected with the appropriate recombinant virus for 3 days. Cells were then harvested and spun at 3,000 rpm for 5 minutes. They were then washed twice in PBS and resuspended in 2 pellet volumes of lysis buffer (25 mM HEPES pH 7.9, 0.1 mM EDTA, 400 mM KCl, 10% glycerol, 0.1% NP-40, 1 mM AEBSF). Resuspended cells were frozen on dry ice and thawed at 37° C. 3 times and centrifuged for 10 minutes at 14,000 rpm. […] Incubation was carried out at 4° C. for 1 hour on a rotating wheel. The slurry was then centrifuged at 500 g for 5 minutes. Beads were washed twice in 1 ml of wash buffer (25 mM HEPES pH7.9, 0.1 mM EDTA, 150 mM KCl, 10% glycerol, 0.1% NP-40, 1 mM AEBSF). Protein was eluted 3 times in 300 μl elution buffer (25 mM HEPES pH 7.9, 0.1 mM EDTA, 250 mM KCl, 10% glycerol, 0.1% NP-40, 1 mM AEBSF) containing increasing concentrations of imidazole: 0.2 M, 0.5 M and 1 M. Each elution was performed for 5 minutes at room temperature. Eluted protein was kept in 50% glycerol at −70° C.
# (§6) A source of HDAC (e.g., 2 μL of crude HeLa extract, 5 μL of HDAC1 or HDAC2; in elution buffer, as above) was incubated with 3 μL of radioactively labelled peptide along with appropriate dilutions of candidate compounds (1.5 μL) in a total volume of 150 μL of buffer (20 mM Tris pH 7.4, 10% glycerol). The reaction was carried out at 37° C. for one hour, after which the reaction was stopped by adding 20 μL of 1 M HCl/0.4 M sodium acetate. […] Radioactivity was measured using a Tri-Carb 2100TR Liquid Scintillation Analyzer (Packard).
# (§7) Percent activity (% activity) for each test compound was calculated as: % activity={(S^C−B)/(S^o−B)}×100 wherein S^C denotes signal measured in the presence of enzyme and the compound being tested, S^o denotes signal measured in the presence of enzyme but in the absence of the compound being tested, and B denotes the background signal measured in the absence of both enzyme and compound being tested.
# human HDAC1 = biological target: T2, human HDAC1 (Homo sapiens, UniProt Q13547); assay: Primary assay: deacetylase activity, recombinantly produced HDAC1; format: biochemical; details: recombinant HDAC1; read-out: HDAC Inhibition (IC50 unless otherwise specified) HDAC1
# T2 construct: Full length human HDAC1 was cloned by PCR; Flag (C); His6 (from pAcHLT vector; purified on Ni-NTA) (N); made in house; host or cells: SF9 insect cells (baculovirus)
# T2 sequence (Q13547 whole entry): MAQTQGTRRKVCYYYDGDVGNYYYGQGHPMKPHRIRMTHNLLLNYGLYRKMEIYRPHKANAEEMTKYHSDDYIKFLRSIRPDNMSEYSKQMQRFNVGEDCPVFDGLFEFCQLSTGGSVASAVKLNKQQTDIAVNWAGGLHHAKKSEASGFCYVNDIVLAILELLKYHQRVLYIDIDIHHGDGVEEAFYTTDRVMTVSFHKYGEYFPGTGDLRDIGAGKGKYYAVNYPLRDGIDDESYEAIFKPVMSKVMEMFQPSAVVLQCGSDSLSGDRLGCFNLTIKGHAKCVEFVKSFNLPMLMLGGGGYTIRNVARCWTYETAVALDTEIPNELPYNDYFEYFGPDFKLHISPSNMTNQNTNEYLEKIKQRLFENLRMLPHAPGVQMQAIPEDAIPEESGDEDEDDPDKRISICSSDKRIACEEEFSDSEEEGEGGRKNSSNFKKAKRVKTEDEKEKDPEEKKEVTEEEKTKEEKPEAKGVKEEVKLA
# Text: as §1, §2, §3
# Full length human HDAC1 was cloned by PCR using a λgt11 Jurkat cDNA library (Clontech-HL5012b). The amplified fragment was inserted into the EcoRI-Sall sites of pFlag-CTC vector (Sigma-E5394), in frame with the Flag tag. A second PCR was carried out in order to amplify a fragment containing the HDAC1 sequence fused to the Flag tag.
# as §4, §5, §6, §7
# [3] = Homo sapiens, Keratinocyte, 48 h
# [4] = HeLa cell extract, read-out: HDAC Inhibition (IC50 unless otherwise specified) HeLa
# [5] = Homo sapiens, Keratinocyte, NHEK-AD
# [6] = comparative tables, HeLa cell extract, no unit in cell, read-out: HeLa IC50
Structure (SMILES),pIC50 (JURKAT human T-cell line; Homo sapiens),"pIC50 [1, 3]",pIC50 (HeLa cells),pIC50 (HDAC (HeLa cell extract); [4]),"pIC50 [2, 5]",pIC50 (JURKAT human T-cell line),"pIC50 ([1]; K11, 48 h)",pIC50 ([2]; NHEK-AD),"pIC50 ([2]; Homo sapiens, Keratinocyte)",pIC50 (HDAC (HeLa cell extract); read-out: HDAC Inhibition (IC50 unless otherwise specified) HeLa),pIC50 (human HDAC2),melting point,pIC50 (human HDAC1),pIC50 (HDAC (HeLa cell extract); [6])
"O=C(/C=C/c1ccc2ccccc2c1)NCCCCCC(=O)NO [PX116232, E-N-(5-Hydroxycarbamoylpentyl)-3-naphthalen-2-yl-acrylamide]",5.14,5.57,4.74,8.00,5.77,–,–,–,–,–,–,–,–,–
"Nc1ccccc1NC(=O)c1ccc(CNC(=O)OCc2cccnc2)cc1 [MS-275, reference compound]",–,–,–,–,–,6.44,5.04,5.51,–,–,–,–,–,–
"CC(/C=C/C(=O)NO)=C\[C@@H](C)C(=O)c1ccc(N(C)C)cc1 [TSA, trichostatin A, reference compound]",7.38,6.42,6.46,–,–,–,–,–,6.70,–,–,–,–,–
"O=C(/C=C/C#Cc1cccc(NS(=O)(=O)c2ccccc2)c1)NO [Oxamflatin, (2E)-5-[3-[(phenylsulfonyl)amino]phenyl]-pent-2-en-4-ynohydroxamic acid, reference compound]",6.59,5.34,5.96,–,–,–,–,–,5.45,–,–,–,–,–
"O=C(C=C1c2ccccc2-c2ccccc21)NCCCCCC(=O)NO [PX117456, 6-(2-Fluoren-9-ylideneacetylamino)hexanoic acid hydroxyamide]",6.74,6.13,6.19,–,–,–,–,–,6.60,8.52,–,–,–,–
"CC(/C=C/C(=O)NCCCCCC(=O)NO)=C\c1ccccc1 [PX105829, (2E,4E)-4-Methyl-5-phenylpenta-2,4-dienoic acid (5-hydroxycarbamoylpentyl)amide]",–,–,5.42,7.27,–,–,–,–,–,–,7.42,129 to 131 °C,7.51,–
"O=C(/C=C/C=C/c1ccccc1)NCCCCCC(=O)NO [PX105553, 4-(2E)(4E)-5-Phenyl-penta-2,4-dienoic acid (5-hydroxycarbamoyl-pentyl)-amide]",5.43,5.12,5.24,7.74,5.62,–,–,–,–,–,7.33,–,7.42,–
O=C(/C=C/C=C/c1ccccc1)NCCCCCCCC(=O)NO [PX105851],–,–,5.38,7.74,–,–,–,–,–,–,7.30,160 to 162 °C,7.92,7.74
"O=C(/C=C/c1c[nH]c2ccccc12)NCCCCCC(=O)NO [PX116220, N-(5-Hydroxycarbamoyl-pentyl)-3-(1-N-indol-3-yl)-acrylamide]",5.35,5.02,5.43,8.20,5.62,–,–,–,–,–,–,92 to 94 °C,–,–
"CN(C)c1ccc(C(=O)NCCCCCC(=O)NO)c2ccccc12 [PX089275, 4-Dimethylamino-napthalene-1-carboxylic acid (5-hydroxycarbamoyl-pentyl)-amide]",–,–,5.64,6.33,–,–,–,–,–,–,6.32,135 to 136 °C,6.76,6.33
"O=C(CCCCCCC(=O)Nc1ccc2ccccc2c1)NO [PX116223, Octanedioic acid hydroxyamide naphthalen-2-ylamide]",6.66,5.77,> 6.51,> 7.90,5.89,–,–,–,–,–,–,142.5 to 144 °C,–,–
"O=C(/C=C/C=C/c1ccc(Cl)cc1)NCCCCCC(=O)NO [PX105850, (2E,4E)-5-(4-Chlorophenyl)penta-2,4-dienoic acid (5-hydroxycarbamoylpentyl)-amide]",–,–,5.20,7.55,–,–,–,–,–,–,7.12,164 to 168 °C,7.60,–
